IC50 data for 23 molecules are collected here from US20260092057A1, “BCL-XL/BCL-2 DEGRADERS AND USES THEREOF” (Kymera Therapeutics, Inc., priority 2022, published 2026).

The subject of one assay is MOLT-4 cells. Put plainly: CTG (CellTiter-Glo) cell viability assay, MOLT-4. The class given is cell-based. Particulars: Homo sapiens, MOLT-4, 72 h, MOLT-4, 3 day; read-out: CTG Cell Viability Assay - MOLT-4 3 day: Average external-IC50. The protocol: (§1) Compound-mediated viability effect on MOLT-4 and Caki-2 was quantitatively determined using the CellTiter-Glo® Luminescent Cell Viability Assay kit from Promega (Catalog number G7570) following manufacturer's recommended procedures. Briefly, MOLT-4 and Caki-2 cells were seeded into 384 well plates (Grenier Bio-One, Catalog number 781080) with a density of 10,000 cells per well. Compounds were then added to the assay plate with final top concentration of 10 µM and 1:3 dilution series with total of 9 doses. The final DMSO concentration is normalized to 0.2%. The assay plates were incubated at 37° C. for 3 days under 5% CO2. Then the assay plate was equilibrated at room temperature for 10 minutes. To determine cell viability, 30 uL CellTiter Glo reagent was added to each well and the assay plate was centrifuged at 1000 rpm for 30 second, incubated at room temperature for 10 min, and analyzed by detecting the luminescence using a multimode plate reader (EnVision 2105, PerkinElmer). The data was then analyzed by software Prism 7.0 from GraphPad and the dose response curves are fit using a three-parameter logistic equation to calculate IC50.
(§2) The letter codes for MOLT-4 IC50 include: A (<0.1 μM); B (0.1-1.0 μM); C (>1.0-3.0 μM); and D (>3.0 μM). The letter codes for Caki-2 IC50 include: A (<5 μM); B (5-10 μM); C (>10-30.0 μM); and D (>30.0 μM).

Another assay deals with Caki-2 cells. Put plainly: CTG (CellTiter-Glo) cell viability assay, Caki-2. In kind it is cell-based. The conditions noted are these: Homo sapiens, CAKI-2, 72 h, Caki-2, 3-day; read-out: CTG Chempartner/PHA- Caki-2 3-day: Average external-IC50. The protocol: as §1, §2

Take `Cc1ncsc1-c1ccc([C@H](C)NC(=O)[C@@H]2C[C@@H](O)CN2C(=O)[C@@H](NC(=O)CCCCCC(=O)N2CCN(CCCNc3ccc(S(=O)(=O)NC(=O)c4ccc(N5CCC(C)(C)CC5)cc4Oc4cnc5[nH]ccc5c4)cc3S(=O)(=O)C(F)(F)F)CC2)C(C)(C)C)cc1` [I-54]: the IC50 was greater than 3000 nM with MOLT-4 cells and greater than 30000 nM with Caki-2 cells.

Regarding `Cc1ncsc1-c1ccc([C@H](C)NC(=O)[C@@H]2C[C@@H](O)CN2C(=O)[C@@H](NC(=O)CCCCCC(=O)NCCCNc2ccc(S(=O)(=O)NC(=O)c3ccc(N4CCC([C@@H](O)c5ccccc5-c5ccc(Cl)cc5)CC4)cc3Oc3cnc4[nH]ccc4c3)cc2S(=O)(=O)C(F)(F)F)C(C)(C)C)cc1` [I-55], the figures for the IC50 with MOLT-4 cells and in the assay on Caki-2 cells were greater than 3000 nM and greater than 30000 nM, respectively.

With `Cc1ncsc1-c1ccc([C@H](C)NC(=O)[C@@H]2C[C@@H](O)CN2C(=O)[C@@H](NC(=O)CCCCCC(=O)NCCCNc2ccc(S(=O)(=O)NC(=O)c3ccc(N4CCC([C@H](O)c5ccccc5-c5ccc(Cl)cc5)CC4)cc3Oc3cnc4[nH]ccc4c3)cc2S(=O)(=O)C(F)(F)F)C(C)(C)C)cc1` [I-56], the values for the IC50 in the assay on MOLT-4 cells and in the assay on Caki-2 cells were greater than 3000 nM and greater than 30000 nM, respectively.

`Cc1ncsc1-c1ccc([C@H](C)NC(=O)[C@@H]2C[C@@H](O)CN2C(=O)[C@@H](NC(=O)CCCCCC(=O)N2CCN(CCCNc3ccc(S(=O)(=O)NC(=O)c4ccc(N5CCN(C)CC5)cc4Oc4cnc5[nH]ccc5c4)cc3S(=O)(=O)C(F)(F)F)CC2)C(C)(C)C)cc1` [I-57]: the results for the IC50 with MOLT-4 cells and with Caki-2 cells were greater than 3000 nM and greater than 30000 nM, respectively.

In the case of `Cc1ncsc1-c1ccc([C@H](C)NC(=O)[C@@H]2C[C@@H](O)CN2C(=O)[C@@H](NC(=O)CCCCCC(=O)N(C)CCCNc2ccc(S(=O)(=O)NC(=O)c3ccc(N4CCN(Cc5ccccc5-c5ccc(Cl)cc5)CC4)cc3Oc3cnc4[nH]ccc4c3)cc2S(=O)(=O)C(F)(F)F)C(C)(C)C)cc1` [I-61], the IC50 is greater than 3000 nM with MOLT-4 cells and greater than 30000 nM in the assay on Caki-2 cells.

For `Cc1ncsc1-c1ccc([C@H](C)NC(=O)[C@@H]2C[C@@H](O)CN2C(=O)[C@@H](NC(=O)CCCCCC(=O)NCCCNc2ccc(S(=O)(=O)NC(=O)c3ccc(N4CCN(Cc5ccccc5-c5ccc(Cl)cc5)CC4)cc3Oc3cnc4[nH]ccc4c3)cc2S(=O)(=O)C(F)(F)F)C(C)(C)C)cc1` [I-62], the IC50 in the assay with MOLT-4 cells was greater than 3000 nM; with Caki-2 cells, greater than 30000 nM.

For the molecule `Cc1ncsc1-c1ccc([C@H](C)NC(=O)[C@@H]2C[C@@H](O)CN2C(=O)[C@@H](NC(=O)CCCCCN(C)CCCNc2ccc(S(=O)(=O)NC(=O)c3ccc(N4CCC([C@@H](O)c5ccccc5-c5ccc(Cl)cc5)CC4)cc3Oc3cnc4[nH]ccc4c3)cc2S(=O)(=O)C(F)(F)F)C(C)(C)C)cc1` [I-66], the IC50 in the assay on MOLT-4 cells is greater than 3000 nM; in the assay with Caki-2 cells, greater than 30000 nM.

As for `Cc1ncsc1-c1ccc([C@H](C)NC(=O)[C@@H]2C[C@@H](O)CN2C(=O)[C@@H](NC(=O)CCCCCC(=O)N(C)CCCNc2ccc(S(=O)(=O)NC(=O)c3ccc(N4CCC([C@@H](O)c5ccccc5-c5ccc(Cl)cc5)CC4)cc3Oc3cnc4[nH]ccc4c3)cc2S(=O)(=O)C(F)(F)F)C(C)(C)C)cc1` [I-68], the IC50 in the assay on MOLT-4 cells is greater than 3000 nM; in the assay on Caki-2 cells it was greater than 30000 nM.

As to `Cc1ncsc1-c1ccc([C@H](C)NC(=O)[C@@H]2C[C@@H](O)CN2C(=O)[C@@H](NC(=O)CCCCCC(=O)NCC[C@H](CSc2ccccc2)Nc2ccc(S(=O)(=O)NC(=O)c3ccc(N4CCC([C@H](O)c5ccccc5-c5ccc(Cl)cc5)CC4)cc3)cc2S(=O)(=O)C(F)(F)F)C(C)(C)C)cc1` [I-70], the IC50 in the assay on MOLT-4 cells was greater than 3000 nM; with Caki-2 cells, greater than 30000 nM.

In the case of `Cc1ncsc1-c1ccc([C@H](C)NC(=O)[C@@H]2C[C@@H](O)CN2C(=O)[C@@H](NC(=O)CCCCCC(=O)N(C)CC[C@H](CSc2ccccc2)Nc2ccc(S(=O)(=O)NC(=O)c3ccc(N4CCC(C(O)c5ccccc5-c5ccc(Cl)cc5)CC4)cc3)cc2S(=O)(=O)C(F)(F)F)C(C)(C)C)cc1` (stereo partly shown) [I-71], the IC50 in the assay with MOLT-4 cells is 1000 to 3000 nM; in the assay with Caki-2 cells, 10000 to 30000 nM.

As to `Cc1ncsc1-c1ccc([C@H](C)NC(=O)[C@@H]2C[C@@H](O)CN2C(=O)[C@@H](NC(=O)CCCCCC(=O)N(C)CC[C@H](CSc2ccccc2)Nc2ccc(S(=O)(=O)NC(=O)c3ccc(N4CCC([C@@H](O)c5ccccc5-c5ccc(Cl)cc5)CC4)cc3)cc2S(=O)(=O)C(F)(F)F)C(C)(C)C)cc1` [I-72], the figures for the IC50 in the assay on MOLT-4 cells and in the assay on Caki-2 cells were 1000 to 3000 nM and 10000 to 30000 nM, respectively.

On to `Cc1ncsc1-c1ccc([C@H](C)NC(=O)[C@@H]2C[C@@H](O)CN2C(=O)[C@@H](NC(=O)CCCCCC(=O)N(C)CC[C@H](CSc2ccccc2)Nc2ccc(S(=O)(=O)NC(=O)c3ccc(N4CCC([C@H](O)c5ccccc5-c5ccc(Cl)cc5)CC4)cc3)cc2S(=O)(=O)C(F)(F)F)C(C)(C)C)cc1` [I-73], for which the IC50 in the assay with MOLT-4 cells was greater than 3000 nM; in the assay with Caki-2 cells it was greater than 30000 nM.

`Cc1ncsc1-c1ccc([C@H](C)NC(=O)[C@@H]2C[C@@H](O)CN2C(=O)[C@@H](NC(=O)CCCCCN2CCC(CNc3ccc(S(=O)(=O)NC(=O)c4ccc(N5CCN(CC6=C(c7ccc(Cl)cc7)CC(C)(C)CC6)CC5)cc4Oc4cnc5[nH]ccc5c4)cc3S(=O)(=O)C(F)(F)F)CC2)C(C)(C)C)cc1` [I-75]: the IC50 with MOLT-4 cells was 100 to 1000 nM; in the assay on Caki-2 cells, greater than 30000 nM.

`Cc1ncsc1-c1ccc([C@H](C)NC(=O)[C@@H]2C[C@@H](O)CN2C(=O)[C@@H](NC(=O)CCCCCC(=O)NCCCNc2ccc(S(=O)(=O)NC(=O)c3ccc(N4CCN(CC5=C(c6ccc(Cl)cc6)CC(C)(C)CC5)CC4)cc3Oc3cnc4[nH]ccc4c3)cc2S(=O)(=O)C(F)(F)F)C(C)(C)C)cc1` [I-76]: the results for the IC50 in the assay with MOLT-4 cells and with Caki-2 cells were greater than 3000 nM and greater than 30000 nM, respectively.

With `Cc1ncsc1-c1ccc([C@H](C)NC(=O)[C@@H]2C[C@@H](O)CN2C(=O)[C@@H](NC(=O)CCCCCN(C)CCNc2ccc(S(=O)(=O)NC(=O)c3ccc(N4CCN(CC5=C(c6ccc(Cl)cc6)CC(C)(C)CC5)CC4)cc3Oc3cnc4[nH]ccc4c3)cc2S(=O)(=O)C(F)(F)F)C(C)(C)C)cc1` [I-77], the IC50 in the assay on MOLT-4 cells was in the range of 100 to 1000 nM; in the assay on Caki-2 cells it was 10000 to 30000 nM.

`Cc1ncsc1-c1ccc([C@H](C)NC(=O)[C@@H]2C[C@@H](O)CN2C(=O)[C@@H](NC(=O)CCCC(=O)N2CCN(CCCNc3ccc(S(=O)(=O)NC(=O)c4ccc(N5CCN(CC6=C(c7ccc(Cl)cc7)CC(C)(C)CC6)CC5)cc4Oc4cnc5[nH]ccc5c4)cc3S(=O)(=O)C(F)(F)F)CC2)C(C)(C)C)cc1` [I-78]: the IC50 in the assay on MOLT-4 cells is greater than 3000 nM; in the assay on Caki-2 cells, greater than 30000 nM.

Consider `Cc1ncsc1-c1ccc([C@H](C)NC(=O)[C@@H]2C[C@@H](O)CN2C(=O)[C@@H](NC(=O)CCC(=O)N2CCN(CCCNc3ccc(S(=O)(=O)NC(=O)c4ccc(N5CCN(CC6=C(c7ccc(Cl)cc7)CC(C)(C)CC6)CC5)cc4Oc4cnc5[nH]ccc5c4)cc3S(=O)(=O)C(F)(F)F)CC2)C(C)(C)C)cc1` [I-79], for which the IC50 was greater than 3000 nM with MOLT-4 cells and greater than 30000 nM with Caki-2 cells.

`Cc1ncsc1-c1ccc([C@H](C)NC(=O)[C@@H]2C[C@@H](O)CN2C(=O)[C@@H](NC(=O)CCCCCNc2ccc(S(=O)(=O)NC(=O)c3ccc(N4CCN(CC5=C(c6ccc(Cl)cc6)CC(C)(C)CC5)CC4)cc3Oc3cnc4[nH]ccc4c3)cc2S(=O)(=O)C(F)(F)F)C(C)(C)C)cc1` [I-80]: the IC50 in the assay with MOLT-4 cells was greater than 3000 nM; with Caki-2 cells, greater than 30000 nM.

With `Cc1ncsc1-c1ccc([C@H](C)NC(=O)[C@@H]2C[C@@H](O)CN2C(=O)[C@@H](NC(=O)CCCCCC(=O)NCC[C@H](CSc2ccccc2)Nc2ccc(S(=O)(=O)NC(=O)c3ccc(N4CCC([C@@H](O)c5ccccc5-c5ccc(Cl)cc5)CC4)cc3)cc2S(=O)(=O)C(F)(F)F)C(C)(C)C)cc1` [I-82], the IC50 in the assay on MOLT-4 cells lay within 1000 to 3000 nM; with Caki-2 cells, 10000 to 30000 nM.

Take `Cc1ncsc1-c1ccc([C@H](C)NC(=O)[C@@H]2C[C@@H](O)CN2C(=O)[C@@H](NC(=O)CCCCCC(=O)N2CCC(NCCCNc3ccc(S(=O)(=O)NC(=O)c4ccc(N5CCN(CC6=C(c7ccc(Cl)cc7)CC(C)(C)CC6)CC5)cc4Oc4cnc5[nH]ccc5c4)cc3S(=O)(=O)C(F)(F)F)CC2)C(C)(C)C)cc1` [I-87]: the figures for the IC50 in the assay on MOLT-4 cells and in the assay on Caki-2 cells were greater than 3000 nM and greater than 30000 nM, respectively.

On to `Cc1ncsc1-c1ccc([C@H](C)NC(=O)[C@@H]2C[C@@H](O)CN2C(=O)[C@@H](NC(=O)CCCCCC(=O)N2CCN(CC[C@H](CSc3ccccc3)Nc3ccc(S(=O)(=O)NC(=O)c4ccc(N5CCC6(CC5)CC(N5CCC[C@H]5c5ccccc5C5CC5)C6)cc4)cc3S(=O)(=O)C(F)(F)F)CC2)C(C)(C)C)cc1` [I-88], for which the IC50 in the assay with MOLT-4 cells is 1000 to 3000 nM; in the assay with Caki-2 cells it was greater than 30000 nM.

`Cc1ncsc1-c1ccc([C@H](C)NC(=O)[C@@H]2C[C@@H](O)CN2C(=O)[C@@H](NC(=O)C2CCN(c3ccc(N(C)CCCNc4ccc(S(=O)(=O)NC(=O)c5ccc(N6CCN(CC7=C(c8ccc(Cl)cc8)CC(C)(C)CC7)CC6)cc5Oc5cnc6[nH]ccc6c5)cc4S(=O)(=O)C(F)(F)F)cc3)CC2)C(C)(C)C)cc1` [I-89]: the IC50 with MOLT-4 cells was greater than 3000 nM; in the assay with Caki-2 cells, greater than 30000 nM.

Take `Cc1ncsc1-c1ccc([C@H](C)NC(=O)[C@@H]2C[C@@H](O)CN2C(=O)[C@@H](NC(=O)C2CCN(C3CCN(CCCNc4ccc(S(=O)(=O)NC(=O)c5ccc(N6CCN(CC7=C(c8ccc(Cl)cc8)CC(C)(C)CC7)CC6)cc5Oc5cnc6[nH]ccc6c5)cc4S(=O)(=O)C(F)(F)F)CC3)CC2)C(C)(C)C)cc1` [I-90]: the IC50 in the assay with MOLT-4 cells was greater than 3000 nM; in the assay with Caki-2 cells, greater than 30000 nM.
